Results taken from ChEMBL document CHEMBL1150372, “Synthesis, fluorine-18 radiolabeling, and in vitro characterization of 1-iodophenyl-N-methyl-N-fluoroalkyl-3-isoquinoline carboxamide derivatives as potential PET radioligands for imaging peripheral benzodiazepine receptor” (Bioorg Med Chem, 2008).

Key:
Translocator protein [1] = molecular target: Translocator protein (Homo sapiens, UniProt P30536); experiment: Binding affinity to human PBR
[2] = Lipophilicity, log P at pH 7.4; type: physicochemical; settings: buffer
Translocator protein [3] = molecular target: Translocator protein (Rattus norvegicus, UniProt P16257); experiment: Displacement of [3H]PK11195 from PBR in rat kidney mitochondrial membrane; type: cell membranes
Chain of Translocator protein (Rattus norvegicus, UniProt P16257) (P16257 whole entry, looked up): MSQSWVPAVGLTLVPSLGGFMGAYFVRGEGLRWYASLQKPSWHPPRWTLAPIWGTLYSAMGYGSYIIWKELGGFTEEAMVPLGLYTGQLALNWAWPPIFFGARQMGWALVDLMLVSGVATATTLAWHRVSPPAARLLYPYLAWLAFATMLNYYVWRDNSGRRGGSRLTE

Chain of Translocator protein (Homo sapiens, UniProt P30536) (P30536 whole entry): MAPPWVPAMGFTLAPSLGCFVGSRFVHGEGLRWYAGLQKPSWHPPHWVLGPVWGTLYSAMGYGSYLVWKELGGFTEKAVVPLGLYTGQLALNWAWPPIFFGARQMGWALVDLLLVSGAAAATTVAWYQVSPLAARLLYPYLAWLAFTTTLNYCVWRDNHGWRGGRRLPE

Compound	IC50 (Translocator protein [3]) [nM]	further results
CN1C(=O)CN=C(c2ccc(Cl)cc2)c2cc(Cl)ccc21 [RO-54864]		Kd (Translocator protein [1]): 6 nM
CN(CCC[18F])C(=O)c1cc2ccccc2c(-c2ccccc2I)n1		logD [2]: 3
CN(CCCF)C(=O)c1cc2ccccc2c(-c2cccc(I)c2)n1	1.4	
CCCCCCN(CCCCCC)C(=O)Cc1c(-c2ccc(F)cc2)[nH]c2ccccc12		Kd (Translocator protein [1]): 4 nM
CN(CCF)C(=O)c1cc2ccccc2c(-c2ccccc2I)n1	445	
CN(CCCF)C(=O)c1cc2ccccc2c(-c2ccccc2I)n1	0.28	
CN(CCCF)C(=O)c1cc2ccccc2c(-c2ccc(I)cc2)n1	66.5	
